Assay results as given in patent US6939946B2, “Ring modified cyclic peptide analogs” (Eli Lilly and Company, priority 1998, dated 2005).
Numbered stars: 1 amine (or outer) side, 2 acyl side, 3 side chain; on linkers, the order of the positions; unused ones are H or OH. Bridge positions count the residues as written; N and C are the ends. Square brackets hold non-standard residues; d marks the D form. Peptide text beside a SMILES is read from it. * marks the point of attachment. ξ: configuration not given here. pTerphenylCO(4''-OnC5H11) = CCCCCOc1ccc(-c2ccc(-c3ccc(C(=O)*)cc3)cc2)cc1; Orn(4R-OH,5R-OH) = O=C([C@H](C[C@@H](O)[C@@H](O)N[*:3])N[*:1])[*:2]; Pro(3S-OH,4S-Me) = C[C@H]1CN[C@H](C(=O)O)[C@H]1O; hTyr(3R-OH) = N[C@H](C(=O)O)[C@H](O)Cc1ccc(O)cc1; Hyp = O=C(O)[C@@H]1C[C@@H](O)CN1; Thr(3ξ) = CC(O)[C@H](N)C(=O)O

How the values were obtained:
A. fumigatus [1] = conditions: in vitro
C. parapsilosis = conditions: in vitro
Histoplasma capsulatum = conditions: in vitro
Cryptococcus neoformans = conditions: in vitro
C. albicans = conditions: in vitro
Pneumocystis carinii = conditions: cited from earlier work
A. Fumigatus [2] = conditions: murine model of organ recovery, cited from earlier work
[3] = the molecule shown is the open-chain precursor; other bond; 21-membered ring; SnCl2/NaHCO3; CH2Cl2; 2.0 mM

Row | Compound | Minimal Inhibitory Concentration MIC A. fumigatus (A. fumigatus [1]) [µg/mL] | Minimal Inhibitory Concentration MIC C. parapsilosis (C. parapsilosis) [µg/mL] | Minimal Inhibitory Concentration MIC Histoplasma capsulatum (Histoplasma capsulatum) [µg/mL] | Minimal Inhibitory Concentration MIC Cryptococcus neoformans (Cryptococcus neoformans) [µg/mL] | Minimal Inhibitory Concentration MIC C. albicans (C. albicans) [µg/mL] | reduction of the number of cysts in the lungs (Pneumocystis carinii; heavily infected, immunosuppressed rats, orally 5 mg/kg once daily for 4 days) | reduction in all life cycle forms (Pneumocystis carinii; prophylactic oral administration of 1 mg/kg twice daily for 4 weeks) [%] | number of A. Fumigatus recovered from the kidneys (A. Fumigatus [2]; administered intraperitoneally) | effectiveness compared with amphotericin B on a mg/kg basis (A. Fumigatus [2]; both administered intraperitoneally) | ring closure, crude yield [3] [%]
1 | CCCCCOc1ccc(-c2ccc(-c3ccc(C(=O)N[C@H]4C[C@@H](O)[C@@H](O)NC(=O)[C@@H]5[C@@H](O)[C@@H](C)CN5C(=O)[C@H](C(C)O)NC(=O)[C@H]([C@H](O)Cc5ccc(O)cc5)NC(=O)[C@@H]5C[C@@H](O)CN5C(=O)[C@H](C(C)O)NC4=O)cc3)cc2)cc1 (stereo partly drawn) [Compound C1, reference compound] ({pTerphenylCO(4''-OnC5H11)}-[Orn(4R-OH,5R-OH)][Thr(3ξ)][Hyp][hTyr(3R-OH)][Thr(3ξ)][Pro(3S-OH,4S-Me)]; lactam 1-C) | 0.02 | 0.156 | 0.01 | >20 | 0.01 | more than 99% | > 90 | significantly reduced | as effective as amphotericin B | 
2 | Boc-Asp-semialdehyde(dimethyl acetal)-Thr(TBS)-Hyp(TBS)-hTyr(3-OTBS,4'-OTBS)-Thr(TBS)-Pro(3-OTBS,4-Me)-NHNH2? |  |  |  |  |  |  |  |  |  | 100
